The text below walks through data of patent EP4273147A1, “SUBSTITUTED SPIROLACTAMS, SALTS THEREOF AND THEIR USE AS HERBICIDALLY ACTIVE SUBSTANCES” (Bayer Aktiengesellschaft, priority 2022, dated 2023).

For one data set, the system named is ORYZA. The data set can be described thus: Post-emergence effects on crop plants (Table F3). Format: in vivo, Oryza sativa. Particulars: application rate 320 g/ha, crop plant ORYZA. The source says:
(§1) 2 to 3 weeks after sowing, the test plants were sprayed in the single-leaf stage.

In another data set the test system is GLXMA. The data set can be described thus: Pre-emergence effects on crop plants (Table D4). Format: in vivo, Glycine max. Particulars: crop plant; application rate 320 g/ha; visual grading after ca. 3 weeks.
The subject of data set [1] is VIOTR. The data set can be described thus: Herbicidal pre-emergence action, section C (Table C12). The class given is in vivo, Viola tricolor. Particulars: application rate 320 g/ha; visual grading after ca. 3 weeks.
For data set [2], the system named is AMARE. The data set can be described thus: Herbicidal post-emergence action (Table B11). Format: in vivo, Amaranthus retroflexus. Particulars: application rate 1280 g/ha. In outline:
(§2)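 Greenhouse post-emergence screen on potted weeds in sandy loam, treatment at one-leaf stage, visual % control scored ~3 weeks later against untreated plants.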

The subject of data set [3] is BRSNW. Put plainly: Pre-emergence effects on crop plants (Table D5). Format: in vivo, Brassica napus. Particulars: crop plant; application rate 80 g/ha; visual grading after ca. 3 weeks.
Description: (§4) Seeds of mono- and dicotyledonous weed plants and crop plants were sown, in plastic or organic planting pots, in sandy loam and covered with soil. The compounds according to the invention, formulated in the form of wettable powders (WP) or as emulsifiable concentrates (EC), were applied to the surface of the covering soil as aqueous suspension or emulsion, with the addition of 0.5% of an additive, at an application rate of 600 1 of water/ha (converted).
(§5) Following treatment, the pots were placed in a greenhouse and kept under optimum growth conditions for the test plants.
In data set [4] the test system is ECHCG. Put plainly: Herbicidal post-emergence action, section E (Table E5). Particulars: application rate 320 g/ha; assessed visually after ca. 3 weeks. The class given is in vivo, Echinochloa crus-galli.
Description: as §1

In data set [5] the test system is TRZAS. The data set can be described thus: Post-emergence effects on crop plants (Table F2). The class given is in vivo, Triticum aestivum. Particulars: application rate 320 g/ha, crop plant TRZAS.
Description: as §1

Data set [6] has as its system POAAN. The data set can be described thus: Herbicidal pre-emergence action (Table A7). The class given is in vivo, Poa annua. Particulars: visual grading after ca. 3 weeks. The gist of the method:
(§3)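 Sandy loam filled the pots; weed seeds went in as paired sowings of one grass-type and one broadleaf species, then were covered with soil.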

Data set [7] has as its system SETVI. The data set can be described thus: Herbicidal pre-emergence action, section C (Table C10). Format: in vivo, Setaria viridis. Particulars: application rate 320 g/ha; visual grading after ca. 3 weeks.
For another data set, the system named is ABUTH. Put plainly: Herbicidal post-emergence action (Table B1). Format: in vivo, Abutilon theophrasti. Particulars: application rate 1280 g/ha; treated at one-leaf stage; rated visually after about 3 weeks vs untreated controls (100% = plants have died, 0% = like control plants). In outline:
as §2

For data set [8], the system named is MATIN. Put plainly: Herbicidal post-emergence action (Table B6). The class given is in vivo, Matricaria inodora. Particulars: application rate 320 g/ha; rated visually after about 3 weeks. The gist of the method: as §2
Data set [9] deals with AMARE. Put plainly: Herbicidal pre-emergence action (Table A8). Format: in vivo, Amaranthus retroflexus. Particulars: application rate 1280 g/ha; visual grading after ca. 3 weeks vs untreated controls (100% = plants have died off, 0% = as control plants). In outline: as §3
Data set [10] deals with ZEAMX. The data set can be described thus: Pre-emergence effects on crop plants (Table D1). Format: in vivo, Zea mays. Particulars: crop plant; application rate 320 g/ha; visual grading after ca. 3 weeks.
Description: as §4, §5
The test system of data set [11] is ECHCG. Put plainly: Herbicidal pre-emergence action (Table A2). Format: in vivo, Echinochloa crus-galli. Particulars: application rate 1280 g/ha; visual grading after ca. 3 weeks. The gist of the method:
as §3

In data set [12] the test system is LOLRI. The data set can be described thus: Herbicidal pre-emergence action (Table A3). Format: in vivo, Lolium rigidum. Particulars: visual grading after ca. 3 weeks. In outline:
as §3

Data set [13] has as its system STEME. Put plainly: Herbicidal post-emergence action (Table B9). The class given is in vivo, Stellaria media. Particulars: application rate 1280 g/ha. The procedure: Seeds of mono- and dicotyledonous weed plants were placed in plastic pots in sandy loam soil (doubly sown with in each case one species of mono- or dicotyledonous weed plants per pot), covered with soil and cultivated in a greenhouse under controlled growth conditions. 2 to 3 weeks after sowing, the test plants were treated at the one-leaf stage. […] After the test plants had been kept in the greenhouse under optimum growth conditions for about 3 weeks, the activity of the preparations was rated visually in comparison to untreated controls. For example, 100% activity = the plants have died, 0% activity = like control plants.

Data set [14] deals with ALOMY. Put plainly: Herbicidal pre-emergence action, section C (Table C2). Format: in vivo, Alopecurus myosuroides. Particulars: application rate 80 g/ha; visual grading after ca. 3 weeks.
Data set [15] deals with ALOMY. Put plainly: Herbicidal post-emergence action, section E (Table E2). Format: in vivo, Alopecurus myosuroides. Particulars: application rate 320 g/ha; assessed visually after ca. 3 weeks.
Description: as §1

In data set [16] the test system is VIOTR. Put plainly: Herbicidal post-emergence action, section E (Table E10). Format: in vivo, Viola tricolor. Particulars: application rate 320 g/ha; assessed visually after ca. 3 weeks.
Description: as §1

The subject of data set [17] is POAAN. Put plainly: Herbicidal post-emergence action (Table B7). The class given is in vivo, Poa annua. In outline: as §2
The subject of data set [18] is BRSNW. The data set can be described thus: Post-emergence effects on crop plants (Table F5). Format: in vivo, Brassica napus. Particulars: application rate 320 g/ha, crop plant BRSNW.
Description: as §1

In data set [19] the test system is TRZAS. The data set can be described thus: Pre-emergence effects on crop plants (Table D2). Particulars: crop plant; application rate 80 g/ha; visual grading after ca. 3 weeks. The class given is in vivo, Triticum aestivum.
Data set [20] has as its system MATIN. The data set can be described thus: Herbicidal pre-emergence action (Table A4). Format: in vivo, Matricaria inodora. Particulars: application rate 1280 g/ha; visual grading after ca. 3 weeks. In outline: as §3
For data set [21], the system named is ECHCG. Put plainly: Herbicidal pre-emergence action, section C (Table C6). The class given is in vivo, Echinochloa crus-galli. Particulars: application rate 80 g/ha; visual grading after ca. 3 weeks.
Data set [22] relates to LOLRI. Put plainly: Herbicidal pre-emergence action, section C (Table C7). Format: in vivo, Lolium rigidum. Particulars: application rate 320 g/ha; visual grading after ca. 3 weeks.
Data set [23] has as its system STEME. The data set can be described thus: Herbicidal pre-emergence action (Table A6). The class given is in vivo, Stellaria media. Particulars: visual grading after ca. 3 weeks. In outline: as §3
The next data set has as its system DIGSA. The data set can be described thus: Herbicidal pre-emergence action, section C (Table C5). Format: in vivo, Digitaria sanguinalis. Particulars: application rate 80 g/ha; visual grading after ca. 3 weeks.
Data set [24] deals with VERPE. The data set can be described thus: Herbicidal pre-emergence action, section C (Table C11). The class given is in vivo, Veronica persica. Particulars: application rate 80 g/ha; visual grading after ca. 3 weeks.
Data set [25] concerns ZEAMX. The data set can be described thus: Post-emergence effects on crop plants (Table F1). Format: in vivo, Zea mays. Particulars: application rate 320 g/ha, crop plant ZEAMX.
Description: as §1

The subject of data set [26] is SETVI. Put plainly: Herbicidal pre-emergence action (Table A5). The class given is in vivo, Setaria viridis. Particulars: visual grading after ca. 3 weeks. In outline: as §3
Data set [27] has as its system VERPE. The data set can be described thus: Herbicidal post-emergence action, section E (Table E9). Particulars: application rate 320 g/ha; assessed visually after ca. 3 weeks. The class given is in vivo, Veronica persica.
Description: as §1

Another data set concerns KCHSC. Put plainly: Herbicidal pre-emergence action (Table A10). The class given is in vivo, Kochia scoparia. Particulars: application rate 1280 g/ha; visual grading after ca. 3 weeks. In outline:
as §3

In data set [28] the test system is ECHCG. Put plainly: Herbicidal post-emergence action (Table B3). The class given is in vivo, Echinochloa crus-galli. Particulars: Echinochloa crus-galli, post-emergence, 504 h; application rate 1280 g/ha; rated visually after about 3 weeks; read-out: post-emergence activity against ECHCG. The gist of the method:
as §2

In data set [29] the test system is SETVI. Put plainly: Herbicidal post-emergence action (Table B8). The class given is in vivo, Setaria viridis. Particulars: application rate 1280 g/ha. In outline: as §2
The subject of data set [30] is VERPE. Put plainly: Herbicidal post-emergence action (Table B10). The class given is in vivo, Veronica persica. Particulars: application rate 1280 g/ha. The gist of the method: as §2

SMILES strings stand for the structures.

Description for GLXMA: as §4, §5

For the compound `O=C1N(Cc2c(F)ccc(F)c2F)CCCC12CCCN(Cc1c(F)ccc(F)c1F)C2=O` (racemic) [I-013], in the data set on ORYZA, the “post-emergence activity against ORYZA” value stood at 0%. For the same compound, the “pre-emergence activity against GLXMA” value in the data set on GLXMA is listed as 0%. Also, in the data set on VIOTR [1], the “pre-emergence activity against VIOTR” value is 80%. Besides, the “post-emergence activity against AMARE” value with AMARE [2] came out at 90%. The “pre-emergence activity against BRSNW” value in the data set on BRSNW [3] is on record as 10%. Moreover, the “post-emergence activity against ECHCG” value in the data set on ECHCG [4] turned out to be 80%. Also, in the data set with TRZAS [5], the “post-emergence activity against TRZAS” value is reported as 0%. Moreover, the “pre-emergence activity against POAAN” value in the data set on POAAN [6] (application rate 320 g/ha) came to 100%. In addition, the “pre-emergence activity against SETVI” value in the data set with SETVI [7] is given as 90%; in the data set with SETVI [26] (application rate 320 g/ha) it was 100%. Also, the “post-emergence activity against ABUTH” value in the data set on ABUTH is recorded as 90%. Also, the “post-emergence activity against MATIN” value with MATIN [8] was 90%. The “pre-emergence activity against AMARE” value in the data set with AMARE [9] turned out to be 90%. For the same compound, the “pre-emergence activity against ZEAMX” value in the data set with ZEAMX [10] was 10%. The “pre-emergence activity against ECHCG” value in the data set on ECHCG [11] and in the data set on ECHCG [21] was 100% in each case. The entries for the “pre-emergence activity against LOLRI” value with LOLRI [12] (application rate 320 g/ha) and with LOLRI [22] were 100% and 90%, respectively. Also, in the data set on STEME [13], the “post-emergence activity against STEME” value is recorded as 90%. The “pre-emergence activity against ALOMY” value in the data set with ALOMY [14] amounted to 80%. Besides, in the data set with ALOMY [15], the “post-emergence activity against ALOMY” value is given as 80%. Also, in the data set with VIOTR [16], the “post-emergence activity against VIOTR” value is given as 90%. Besides, the “post-emergence activity against POAAN” value in the data set on POAAN [17] (application rate 320 g/ha) was 90%. Besides, the “post-emergence activity against BRSNW” value with BRSNW [18] stood at 0%. In addition, in the data set on TRZAS [19], the “pre-emergence activity against TRZAS” value was found to be 20%. In addition, the “pre-emergence activity against MATIN” value in the data set with MATIN [20] was found to be 90%. In addition, in the data set on STEME [23] (application rate 320 g/ha), the “pre-emergence activity against STEME” value is given as 100%. For the same compound, the “pre-emergence activity against DIGSA” value in the data set with DIGSA worked out at 100%. Also, the “pre-emergence activity against VERPE” value in the data set with VERPE [24] worked out at 90%. Also, the “post-emergence activity against ZEAMX” value in the data set on ZEAMX [25] worked out at 10%. Further, in the data set on VERPE [27], the “post-emergence activity against VERPE” value is reported as 80%.

On to `N#Cc1ccc(CN2CCCC3(CCCN(Cc4ccc(C#N)s4)C3=O)C2=O)s1` (single isomer, unassigned; (-)) [I-208, (-)-2,8-bis[(5-cyanothiophen-2-yl)methyl]-2,8-diazaspiro[5.5]undecane-1,7-dione], for which the “pre-emergence activity against KCHSC” value in the data set with KCHSC is 90%. In addition, the pest or weed control at 1280 g/ha in the data set on ECHCG [28] worked out at 90%; in the data set on POAAN [6] (Poa annua, pre-emergence, 504 h, application rate 1280 g/ha, read-out: pre-emergence activity against POAAN), 100%; in the data set on LOLRI [12] (Lolium rigidum, pre-emergence, 504 h, application rate 1280 g/ha, read-out: pre-emergence activity against LOLRI), 90%. In addition, the “post-emergence activity against AMARE” value with AMARE [2] worked out at 90%. Besides, the “post-emergence activity against ABUTH” value in the data set with ABUTH turned out to be 90%. Besides, the “pre-emergence activity against AMARE” value in the data set on AMARE [9] stood at 100%. Further, the “post-emergence activity against STEME” value with STEME [13] was found to be 90%. Besides, the “post-emergence activity against POAAN” value in the data set with POAAN [17] (application rate 1280 g/ha) turned out to be 90%. Further, in the data set on STEME [23] (application rate 1280 g/ha), the “pre-emergence activity against STEME” value was determined as 100%. The “post-emergence activity against SETVI” value in the data set on SETVI [29] was 90%. For the same compound, in the data set on VERPE [30], the “post-emergence activity against VERPE” value worked out at 90%. The “pre-emergence activity against SETVI” value in the data set on SETVI [26] (application rate 1280 g/ha) is on record as 90%.
